Experimental data as given in patent US5955508A, “Method for the enhancement of lymphocyte activity against opportunistic microbial pathogens” (priority 1996, dated 1999).
Entries after “also recorded” stand apart in the source; their conditions may differ. Read-outs that look alike come from different tables or passages of the source.

Columns and labels:
CD4+ lymphocytes = assay: Con A induced lymphoproliferation of PBMC (CD4+ lymphocytes); format: cell-based, human; conditions: for comparison of 5 ng/ml with 50 ng/ml d-FEN: 5 ng/ml vs 50 ng/ml
From the text: (§1) The T lymphocytes analyzed were obtained from 20 HIV+ patients (9 females and 11 males, 25-48 years of age). The patients were diagnosed as being HIV+ within the past 0.5-9 years, and 15 are being treated with antiviral drugs. The subjects' study identification number (indicates the order in which bloods were drawn), CD4+ and CD8+ counts (determined March, 1996, as part of the present study), age, sex, date of diagnosis, and pharmacotherapy are provided in Table 1.
The patients fell into one of three groups (Groups A, B and C) based on their CD4+ cell counts (the number of T helper cells/μL blood): 8 of the HIV+ patients had normal (or above normal) CD4+ levels (normal range 550-1500/μL); 4 had levels between 200-499/μL; and, 7 had CD4+ counts equal to or below 200/μL. This latter group of patients by definition have AIDS (see Table 41-3 from K. J. Ryan (Ed.), Sherris Medical Microbiology, Third Edition, Appleton & Lange:Norwalk, Conn., 1994, p. 547). These patients, moreover, have had recurrent candidiasis and other opportunistic infections which have become increasingly difficult to manage. All of the patients' CD8+ cell (cytotoxic T lymphocytes) counts were within or above normal range (300-1000/μL). We were unable to obtain enough lymphocytes from one patient (#4) to analyze their antifungal activity.
Peripheral blood (40 ml) was drawn (Mar. 29-30, 1996) from the patients on a "first come, first serve" basis when they arrived at the Ponce Center for Diagnosis and Treatment (Dr. Hiram Valazquez, Medical Director) for their monthly checkup and who volunteered their blood for experimental analysis. In addition, blood was drawn from 4 healthy HIV- volunteers in order to study their lymphoproliferation response to Con A. The lymphocytes were isolated and processed as detailed below.
(§2) The experimental protocol for this project is illustrated in Table A. Note that the cultures were exposed to two doses (5 and 50 ng/ml) of d-FEN in the mitogenesis assays, whereas only one dose (50 ng/ml) was used in the antifungal and cytokine release assays.
Cell Proliferation Analysis. Lymphoid cell suspensions were cultured in microtiter plates (Corning Glass Works, Corning, N.Y.) in the presence of 3.0 μg/ml Con-A (Pharmacia, Uppsala, Sweden) for 3 and 4 days at 37° C. d-FEN (5 and 50 ng/ml) was added the second day of culture. The cells were cultured at 2×10^5 /well in RPMI 1640 with 1% fetal bovine serum. The cells then were pulsed for 6.0 h with 1.0 μCi of [^3 H]-thymidine (DuPont-New England Nuclear Research, Boston, Mass.), harvested, and [^3 H]-thymidine incorporation determined with a liquid scintillation counter. The data are reported as a percent increase in the stimulation in dextrofenfluramine values.
(§3) The data were analyzed by a one- or two-way analysis of variance (ANOVA) with repeated measures where appropriate ([…] version 1; Jandel, San Rafael, Calif.). Significant main effects were subjected to post hoc analysis using the Student-Newman Keuls All Pairwise Multiple Comparisons test or the Mann-Whitney U test.
^A The stimulatory effect of dFEN is expressed as a percent increase
in the stimulation index of PBMCs cultured with the two doses of dFEN
versus that cultured without dFEN. The data represent the greatest
stimulation that occurred after the lymphocytes had been in culture for 3
or 4 days. The mitogenic activity of the PBMC (CD4+ lymphocytes) index of
stimulation was calculated as follows: […]

[1] = tested on: INF-γ in CD4+ (CD8-) T cells; assay: INF-γ production by CD4+ (CD8-) T cells, flow cytometry; format: cell-based, human; conditions: for % Positive Cells (INF-γ immunopositive), d-FEN / INF-γ Titer, d-FEN: CD4+ (CD8-) T cells, Mean ± SEM; for activation at 0.05 µg/mL: Homo sapiens, T-cell
From the text: as §1, §2
(§4) Cytokine Profiles. Peripheral mononuclear cells were isolated by the Ficoll-Hypaque method and washed twice with RPMI-1640 medium. Cell suspensions were made at 1×10^6 /ml and the cells activated with interleukin-2 (IL-2) for 18 h or 4 days at 37° C. under 5% CO^2 +95% air. Monensin (1 nM) then was added to the culture to block secretion of cytokines, and the cultures allowed to continue for another 3 h. The cells were washed twice with PBS+1% fetal calf serum (FCS) with 0.1% saponin+0.1% sodium azide, then washed once with PBS-1% FCS and stained with anti-cytokine MAb-FL conjugate for 30 min. Following two washes, the cells were analyzed by flow cytometry for production of IL-2, IFN-γ and TNF-α. The MAbs-FL conjugates were obtained from Pharmingen (San Diego, Calif.). Potential effects of on cytokine production were evaluated (a) as increases in the percentage of a T cell subset which produce the respective cytokine; and, (b) as increases in the amount of cytokine produced by each subset. The latter were analyzed as a shift of the cytokine histograms.
as §3

INF-γ in CD8+ T cells = assay: INF-γ production by CD8+ T cells, flow cytometry; format: cell-based, human; conditions: 50 ng/ml, Mean ± SEM
From the text: as §1, §2, §4, §3

[2] = tested on: TNF-α in CD4+ (CD8-) T cells; assay: TNF-α production by CD4+ (CD8-) T cells, flow cytometry; format: cell-based, human; conditions: for % Positive Cells (TNF-α immunopositive), d-FEN / TNF-α Titer, d-FEN: CD4+ (CD8-) T cells, Mean ± SEM; for inhibition at 0.05 µg/mL: Homo sapiens, T-cell
From the text: as §1, §2, §4, §3

[3] = cited from earlier work
[4] = whether by intravenous or oral administration; cited from earlier work

CCN[C@@H](C)Cc1cccc(C(F)(F)F)c1 [d-FEN]
mitogenesis of human controls and AIDS patients vs non-AIDS HIV+ patients (CD4+ lymphocytes; 5 ng/ml d-FEN): greater mitogenesis in the presence of 5 ng/ml d-FEN than the non-AIDS HIV+ patients
comparison of 5 ng/ml with 50 ng/ml d-FEN (CD4+ lymphocytes): lymphocytes obtained from human control and AIDS subjects respond better in vitro to a low (5 ng/ml) than to a high (50 ng/ml) dose; also recorded: greater lymphoproliferation in AIDS derived lymphocytes than 50 ng/ml
comparison of 5 ng/ml with 50 ng/ml d-FEN (CD4+ lymphocytes; listed as dextrofenfluramine): more effective than 50 ng/ml
mitogenesis of non-AIDS HIV+ patients (Groups A+B) vs AIDS group (CD4+ lymphocytes; 50 ng/ml d-FEN): greater mitogenesis than the AIDS group (Group C)
dose effect, two way ANOVA (CD4+ lymphocytes; 5 vs 50 ng/ml, p=0.15): did not reach significance
activation at 0.005 µg/mL (CD4+ lymphocytes; Homo sapiens, Lymphocyte, 5 ng/ml d-FEN, Groups A + B (non-AIDS HIV+), Con A, read-out: Increase in Index of Stimulation, Mean ± SEM): 17 ± 8%
activation at 0.05 µg/mL (CD4+ lymphocytes; Homo sapiens, Lymphocyte, 50 ng/ml d-FEN, Groups A + B (non-AIDS HIV+), Con A, read-out: Increase in Index of Stimulation, Mean ± SEM): 50 ± 8%
proliferation, AIDS patient #15 (CD4+ lymphocytes; no detectable CD4+ cells): did not show any proliferation
% Positive Cells (INF-γ immunopositive), d-FEN ([1]; 50 ng/ml, AIDS): 18 ± 2%
INF-γ Titer, d-FEN ([1]; 50 ng/ml, AIDS): 336 ± 45 geometric mean channel fluorescence
% Positive Cells (INF-γ immunopositive), d-FEN ([1]; 50 ng/ml, non-AIDS HIV+): 16 ± 2%
INF-γ Titer, d-FEN ([1]; 50 ng/ml, non-AIDS HIV+): 473 ± 37 geometric mean channel fluorescence
effect on INF-γ levels in words ([1]; 50 ng/ml, CD4+ T cells): did not have any significant effect
activation at 0.05 µg/mL ([1]; read-out: percent increase over VEH (printed under Titer, d-FEN), 50 ng/ml, CD4+ T cells, AIDS): 38%
activation at 0.05 µg/mL ([1]; read-out: percent increase over VEH (printed under Titer, d-FEN), 50 ng/ml, CD4+ T cells, non-AIDS): 33%
activation at 0.05 µg/mL ([1]; 50 ng/ml, CD4+ T cells, all patients, p=0.007, read-out: increase in the percent of INF-γ immunopositive T cells): 33 to 38%
% Positive Cells (INF-γ immunopositive), d-FEN (INF-γ in CD8+ T cells; AIDS): 40 ± 5%
INF-γ Titer, d-FEN (INF-γ in CD8+ T cells; AIDS): 764 ± 86 geometric mean channel fluorescence
% Positive Cells (INF-γ immunopositive), d-FEN (INF-γ in CD8+ T cells; non-AIDS HIV+): 47 ± 4%
INF-γ Titer, d-FEN (INF-γ in CD8+ T cells; non-AIDS HIV+): 964 ± 71 geometric mean channel fluorescence
% Positive Cells (TNF-α immunopositive), d-FEN ([2]; 50 ng/ml, AIDS): 31 ± 4%
TNF-α Titer, d-FEN ([2]; 50 ng/ml, AIDS): 156 ± 40 geometric mean channel fluorescence
% Positive Cells (TNF-α immunopositive), d-FEN ([2]; 50 ng/ml, non-AIDS HIV+): 69 ± 3%
TNF-α Titer, d-FEN ([2]; 50 ng/ml, non-AIDS HIV+): 310 ± 40 geometric mean channel fluorescence
effect on TNF-α level in words ([2]; 50 ng/ml, CD4+ T cells, AIDS): not in the AIDS CD4+ T cells
effect on number of TNF-α+ cells in words ([2]; 50 ng/ml, CD4+ T cells, AIDS): failed to affect
inhibition at 0.05 µg/mL ([2]; read-out: percent change of TNF-α titer vs VEH): 23%
inhibition at 0.05 µg/mL ([2]; read-out: reduction of the level of TNF-α): 23%
level in tissue and in plasma ([3]; 5 mg dextrofenfluramine per os): about 5 ng/ml
conversion to metabolite dextronorfenfluramine ([3]; upon administration, in vivo): partially converts upon administration to its metabolite dextronorfenfluramine
protein binding [4]: about 36%
